The values that follow come from patent publication US12491185B2, “Inhibitors of mPTP” (NRG Therapeutics Ltd, priority 2023, dated 2025).

Test [1] has as its system mPTP. Description: mPTP activity (Ca2+ retention) assay in isolated rat liver mitochondria. The class given is biochemical. The conditions noted are these: examples tested by different contract research organisations, believed comparable. In outline: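 pIC50 was taken from Fluo5N fluorescence at 10 min after a 75 μM CaCl2 bolus, scaled between DMSO (0%) and 5 μM cyclosporin A (100%). Compounds, ten half-log concentrations from 30 μM to 1 nM final, sat 10 min at RT with fresh female Sprague Dawley rat liver mitochondria energized by succinate plus rotenone.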

Test [2] deals with mPTP. Description: mPTP activity assay in isolated rat brain mitochondria. The conditions noted are these: fluorescence at 10 min timepoint. The format is biochemical. Here is the method: MPTP activity was measured in brain mitochondria freshly isolated from female Sprague Dawley (250 to 300 gram) rats. Anaesthetised rats were perfused in-situ with −40 ml cold Dulbecco's Phosphate Buffered Saline (DPBS), then brains dissected and transferred into 30 ml Isolation Buffer (225 mM mannitol, 75 mM sucrose, 1 mM EGTA, adjusted to pH 7.4 with 1M NaOH). The brain was minced using tweezers and a scalpel into −5 mm pieces then transferred into a 50 ml Potterton Dounce homogenization tube on ice containing 10 ml ice-cold isolation buffer (as above with addition of Complete Protease inhibitor; 1 tablet per 50 ml buffer). Homogenisation was carried out using a teflon pestle at 1800 rpm. The slurry was centrifuged at 2000 g for 10 min at 4° C., then the supernatant centrifuged at 12,000 g for 9 min. The pellet was resuspended with a dounce homogeniser in isolation buffer as above but with the addition of 0.02% digitonin, centrifuged at 12,000 g for 11 min and finally resuspended in 5 ml modified isolation buffer (as above but with EGTA reduced to 0.1 mM).
Test compounds were prepared in 384 well polypropylene assay plates as described above for the liver mitochondria assay. A stock mitochondria/Fluo5N assay solution was prepared in 5.6 ml assay buffer (120 mM mannitol, 40 mM MOPS, 5 mM KH2PO4, 60 mM KCl, 10 mM pyruvate, 2 mM malate, 2 mM MgCl2, 20 μM ADP, 1.26 μM oligomycin A, adjusted to pH 7.4) supplemented with Fluo5N pentapotassium salt (2 μM) and 1 ml mitochondria suspension, then transferred (15 μl) into the assay plate containing test compounds and incubated for 10 min at RT. Assay plates were then transferred to a FLIPR Tetra plate reader (Molecular Devices). Dye fluorescence was then measured every 3 sec for a total of 10 min.

For the compound `Cc1cnc(C(=O)NCC2(Cc3ccccc3)CCC2)[nH]c1=O` [Example 9, N-((1-benzylcyclobutyl)methyl)-5-methyl-6-oxo-1,6-dihydropyrimidine-2-carboxamide], in the test on mPTP [1], the “mPTP Rat liver pIC50” value was determined as 6.14. Further, the “mPTP Rat brain pIC50” value in the test on mPTP [2] turned out to be 7.33.

As for `Cn1nc(C(=O)NCC2(Cc3ccccc3)CCC2)[nH]c1=O` [Example 10, N-((1-benzylcyclobutyl)methyl)-1-methyl-5-oxo-4,5-dihydro-1H-1,2,4-triazole-3-carboxamide], the “mPTP Rat liver pIC50” value in the test on mPTP [1] was determined as 6.58. Moreover, the “mPTP Rat brain pIC50” value in the test on mPTP [2] was determined as 7.42.

Turning to `CN(CC1(Cc2ccccc2)CCC1)C(=O)c1cncc(O)n1` [Example 11, N-((1-benzylcyclobutyl)methyl)-6-hydroxy-N-methylpyrazine-2-carboxamide], in the test with mPTP [1], the “mPTP Rat liver pIC50” value stood at 5.18. The “mPTP Rat brain pIC50” value in the test with mPTP [2] is listed as 6.48.

With `CC(C)(CNC(=O)c1cncc(O)n1)Cc1ccccc1` [Example 12, N-(2,2-dimethyl-3-phenylpropyl)-6-hydroxypyrazine-2-carboxamide], in the test with mPTP [1], the “mPTP Rat liver pIC50” value is on record as 5.70. In addition, the “mPTP Rat brain pIC50” value in the test with mPTP [2] turned out to be 7.08.

`O=C(NCC1(Cc2ccccc2F)CCC1)c1cncc(O)n1` [Example 13, N-((1-(2-fluorobenzyl)cyclobutyl)methyl)-6-hydroxypyrazine-2-carboxamide]: the “mPTP Rat liver pIC50” value in the test on mPTP [1] was found to be 5.33. In addition, the “mPTP Rat brain pIC50” value with mPTP [2] amounted to 7.74.

As for `CCn1nc(C(=O)NCC2(Cc3ccccc3)CCC2)[nH]c1=O` [Example 14, N-((1-benzylcyclobutyl)methyl)-1-ethyl-5-oxo-4,5-dihydro-1H-1,2,4-triazole-3-carboxamide], the “mPTP Rat liver pIC50” value in the test with mPTP [1] is recorded as 5.63. Also, in the test with mPTP [2], the “mPTP Rat brain pIC50” value is 6.94.

For `O=C(NCC1(Cc2c(F)cccc2F)CCC1)c1cncc(=O)[nH]1` [Example 15, N-((1-(2,6-difluorobenzyl)cyclobutyl)methyl)-6-oxo-1,6-dihydropyrazine-2-carboxamide], the “mPTP Rat liver pIC50” value with mPTP [1] stood at 5.92. The “mPTP Rat brain pIC50” value with mPTP [2] was 7.65.

Take `O=C(NCC1(Cc2cccc(F)c2F)CCC1)c1cncc(=O)[nH]1` [Example 17, N-((1-(2,3-difluorobenzyl)cyclobutyl)methyl)-6-oxo-1,6-dihydropyrazine-2-carboxamide]: the “mPTP Rat liver pIC50” value with mPTP [1] is listed as 6.05. The “mPTP Rat brain pIC50” value in the test with mPTP [2] came out at 6.96.

On to `O=C(NCC1(Cc2ccccc2)CCCC1)c1cncc(=O)[nH]1` [Example 18, N-((1-benzylcyclopentyl)methyl)-6-oxo-1,6-dihydropyrazine-2-carboxamide], for which, in the test with mPTP [1], the “mPTP Rat liver pIC50” value was found to be 5.55. Also, the “mPTP Rat brain pIC50” value in the test with mPTP [2] came to 7.04.

Consider `Cc1ccccc1CC1(CNC(=O)c2cncc(=O)[nH]2)CCC1` [Example 19, N-((1-(2-methylbenzyl)cyclobutyl)methyl)-6-oxo-1,6-dihydropyrazine-2-carboxamide], for which, in the test on mPTP [1], the “mPTP Rat liver pIC50” value is 5.41. Further, in the test with mPTP [2], the “mPTP Rat brain pIC50” value was 7.35.

Turning to `Cn1nc(C(=O)NCC2(Cc3ccccc3F)CCC2)[nH]c1=O` [Example 20, N-((1-(2-fluorobenzyl)cyclobutyl)methyl)-1-methyl-5-oxo-4,5-dihydro-1H-1,2,4-triazole-3-carboxamide], in the test on mPTP [1], the “mPTP Rat liver pIC50” value is listed as 6.44. The “mPTP Rat brain pIC50” value in the test with mPTP [2] is recorded as 7.55.

`Cn1nc(C(=O)NCC2(Cc3c(F)cccc3F)CCC2)[nH]c1=O` [Example 21, N-((1-(2,6-difluorobenzyl)cyclobutyl)methyl)-1-methyl-5-oxo-4,5-dihydro-1H-1,2,4-triazole-3-carboxamide]: the “mPTP Rat liver pIC50” value with mPTP [1] is 6.09. In addition, the “mPTP Rat brain pIC50” value with mPTP [2] worked out at 7.63.

Take `CC(NC(=O)c1nn(C)c(=O)[nH]1)C1(Cc2ccccc2)CCC1` (centres unmarked) [Example 23, N-(1-(1-benzylcyclobutyl)ethyl)-1-methyl-5-oxo-4,5-dihydro-1H-1,2,4-triazole-3 carboxamide]: in the test with mPTP [1], the “mPTP Rat liver pIC50” value turned out to be 6.64. Further, in the test on mPTP [2], the “mPTP Rat brain pIC50” value is 7.37.

On to `CC(c1ccccc1)C1(CNC(=O)c2nn(C)c(=O)[nH]2)CCC1` (centres unmarked) [Example 25, 1-methyl-5-oxo-N-((1-(1-phenylethyl)cyclobutyl)methyl)-4,5-dihydro-1H-1,2,4-triazole-3-carboxamide], for which the “mPTP Rat liver pIC50” value with mPTP [1] was 6.42. Further, the “mPTP Rat brain pIC50” value in the test on mPTP [2] worked out at 7.37.

Consider `COC(c1ccccc1)C1(CNC(=O)c2nn(C)c(=O)[nH]2)CCC1` (centres unmarked) [Example 28, N-((1-(methoxy(phenyl)methyl)cyclobutyl)methyl)-1-methyl-5-oxo-4,5-dihydro-1H-1,2,4-triazole-3-carboxamide], for which the “mPTP Rat liver pIC50” value in the test on mPTP [1] is recorded as 5.96. For the same compound, the “mPTP Rat brain pIC50” value in the test with mPTP [2] is given as 6.73.

For the compound `Cc1ccccc1CC1(CNC(=O)c2nn(C)c(=O)[nH]2)CCC1` [Example 29, 1-methyl-N-((1-(2-methylbenzyl)cyclobutyl)methyl)-5-oxo-4,5-dihydro-1H-1,2,4-triazole-3-carboxamide], the “mPTP Rat liver pIC50” value with mPTP [1] is on record as 6.34. For the same compound, in the test on mPTP [2], the “mPTP Rat brain pIC50” value amounted to 7.84.

Regarding `Cn1nc(C(=O)NCC2(Cc3ccccc3Cl)CCC2)[nH]c1=O` [Example 30, N-((1-(2-chlorobenzyl)cyclobutyl)methyl)-1-methyl-5-oxo-4,5-dihydro-1H-1,2,4-triazole-3-carboxamide], the “mPTP Rat liver pIC50” value in the test with mPTP [1] turned out to be 6.20. Moreover, the “mPTP Rat brain pIC50” value with mPTP [2] amounted to 7.63.

Regarding `Cn1nc(C(=O)NCC(C)(C)Cc2ccccc2)[nH]c1=O` [Example 31, N-(2,2-dimethyl-3-phenylpropyl)-1-methyl-5-oxo-4,5-dihydro-1H-1,2,4-triazole-3-carboxamide], the “mPTP Rat liver pIC50” value in the test with mPTP [1] was 6.48. Further, in the test on mPTP [2], the “mPTP Rat brain pIC50” value worked out at 7.37.

For the compound `CC(CNC(=O)c1nn(C)c(=O)[nH]1)Cc1ccccc1` (centres unmarked) [Example 32, 1-methyl-N-(2-methyl-3-phenylpropyl)-5-oxo-4,5-dihydro-1H-1,2,4-triazole-3-carboxamide], the “mPTP Rat liver pIC50” value with mPTP [1] was 5.76. Also, the “mPTP Rat brain pIC50” value in the test with mPTP [2] came out at 6.79.

Turning to `Cn1nc(C(=O)NCC2(Cc3ccccc3)CC2)[nH]c1=O` [Example 33, N-((1-benzylcyclopropyl)methyl)-1-methyl-5-oxo-4,5-dihydro-1H-1,2,4-triazole-3-carboxamide], the “mPTP Rat liver pIC50” value with mPTP [1] is on record as 5.63. The “mPTP Rat brain pIC50” value with mPTP [2] worked out at 6.51.

For `CCC(NC(=O)c1nn(C)c(=O)[nH]1)C(C)(C)Cc1ccccc1` (centres unmarked) [Example 34, N-(2,2-dimethyl-1-phenylpentan-3-yl)-1-methyl-5-oxo-4,5-dihydro-1H-1,2,4-triazole-3-carboxamide], the “mPTP Rat liver pIC50” value with mPTP [1] worked out at 5.82. Moreover, the “mPTP Rat brain pIC50” value in the test on mPTP [2] was 7.32.

In the case of `Cn1nc(C(=O)NC(C(F)(F)F)C(C)(C)Cc2ccccc2)[nH]c1=O` (centres unmarked) [Example 35, 1-methyl-5-oxo-N-(1,1,1-trifluoro-3,3-dimethyl-4-phenylbutan-2-yl)-4,5-dihydro-1H-1,2,4-triazole-3-carboxamide], the “mPTP Rat liver pIC50” value in the test on mPTP [1] came to 5.23. In the test on mPTP [2], the “mPTP Rat brain pIC50” value is 6.86.

For the compound `Cn1nc(C(=O)NCC(C)(C)Cc2ccccc2Br)[nH]c1=O` [Example 36, N-(3-(2-bromophenyl)-2,2-dimethylpropyl)-1-methyl-5-oxo-4,5-dihydro-1H-1,2,4-triazole-3-carboxamide], the “mPTP Rat liver pIC50” value with mPTP [1] stood at 5.28. Also, in the test with mPTP [2], the “mPTP Rat brain pIC50” value is 7.05.

As for `Cn1nc(C(=O)NCC2(Cc3ccccc3Br)CCC2)[nH]c1=O` [Example 37, N-((1-(2-bromobenzyl)cyclobutyl)methyl)-1-methyl-5-oxo-4,5-dihydro-1H-1,2,4-triazole-3-carboxamide], the “mPTP Rat liver pIC50” value in the test with mPTP [1] is 5.79. The “mPTP Rat brain pIC50” value in the test with mPTP [2] was 7.61.

Regarding `CC(NC(=O)c1nn(C)c(=O)[nH]1)C(C)(C)Cc1ccccc1` (centres unmarked) [Example 38, N-(3,3-dimethyl-4-phenylbutan-2-yl)-1-methyl-5-oxo-4,5-dihydro-1H-1,2,4-triazole-3-carboxamide], the “mPTP Rat liver pIC50” value in the test on mPTP [1] is 6.14. Moreover, the “mPTP Rat brain pIC50” value in the test on mPTP [2] is on record as 7.30.

As to `CCC(CNC(=O)c1nn(C)c(=O)[nH]1)Cc1ccccc1` (centres unmarked) [Example 40, N-(2-benzylbutyl)-1-methyl-5-oxo-4,5-dihydro-1H-1,2,4-triazole-3-carboxamide], the “mPTP Rat liver pIC50” value with mPTP [1] is reported as 6.29. In addition, the “mPTP Rat brain pIC50” value in the test on mPTP [2] is given as 7.50.

For `Cn1nc(C(=O)NCC(C)(CO)Cc2ccccc2)[nH]c1=O` (centres unmarked) [Example 41, N-(2-benzyl-3-hydroxy-2-methylpropyl)-1-methyl-5-oxo-4,5-dihydro-1H-1,2,4-triazole-3-carboxamide], the “mPTP Rat liver pIC50” value with mPTP [1] was found to be 5.25. Besides, in the test on mPTP [2], the “mPTP Rat brain pIC50” value came to 6.38.

As for `CC(O)C(C)(CNC(=O)c1nn(C)c(=O)[nH]1)Cc1ccccc1` (centres unmarked) [Example 42, N-(2-benzyl-3-hydroxy-2-methylbutyl)-1-methyl-5-oxo-4,5-dihydro-1H-1,2,4-triazole-3-carboxamide], the “mPTP Rat liver pIC50” value in the test on mPTP [1] worked out at 5.27. The “mPTP Rat brain pIC50” value in the test with mPTP [2] is reported as 6.26.
